{"source": "patent US7092825B1", "about": "“Protein engineering” (The University of Queensland, priority 1998, dated 2006)", "key": {"[1]": {"target": "T1, human Growth Hormone Receptor (hGHR) (Homo sapiens, UniProt P10912)", "T1 construct": "expressed in transfected cells; host or cells: BaF-B03 (BaF3) pro-B cells", "T1 sequence (P10912 19-638)": "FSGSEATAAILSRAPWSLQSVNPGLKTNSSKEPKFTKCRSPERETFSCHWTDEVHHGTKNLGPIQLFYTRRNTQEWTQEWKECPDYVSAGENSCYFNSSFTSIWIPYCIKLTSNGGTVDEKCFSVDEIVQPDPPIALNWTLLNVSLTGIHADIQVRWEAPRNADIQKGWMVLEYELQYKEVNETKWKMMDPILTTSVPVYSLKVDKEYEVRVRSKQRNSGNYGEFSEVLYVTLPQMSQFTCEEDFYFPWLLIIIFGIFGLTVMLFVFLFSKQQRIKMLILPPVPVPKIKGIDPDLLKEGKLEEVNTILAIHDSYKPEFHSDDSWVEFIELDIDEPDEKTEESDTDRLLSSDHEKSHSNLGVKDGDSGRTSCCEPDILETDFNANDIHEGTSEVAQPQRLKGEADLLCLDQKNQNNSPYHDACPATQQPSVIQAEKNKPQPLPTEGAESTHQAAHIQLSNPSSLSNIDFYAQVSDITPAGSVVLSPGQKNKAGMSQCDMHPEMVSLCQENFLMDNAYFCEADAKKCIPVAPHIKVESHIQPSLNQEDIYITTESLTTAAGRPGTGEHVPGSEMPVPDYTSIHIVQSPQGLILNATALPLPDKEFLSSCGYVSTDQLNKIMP", "assay": "Growth Hormone proliferation assay (hGH-stimulated BaF3 cell proliferation, MTT)", "format": "cell-based", "details": "inhibition of BaF3 cell proliferation in response to 0.5 ng/mL hGH; read-out: calculated Ki", "procedure": "SCY01 was tested for biological function by bioassay using the BaF3 cell line, which cells normally respond to GH. SCY01 was assayed at various concentrations to check its ability to inhibit BaF3 cell proliferation in response to either 0.5 ng/mL hGH, or as a control, 50 Units/mL IL-3.\nBaF-B03 cells (a pro B cell line) that stably express the human Growth Hormone Receptor (hGHR) are used in this assay since they are able to elicit a GH-specific response at concentrations as low as 0.1 ng/mL hGH (4.54 pM). These cells also endogenously express the IL3 receptor and require IL3 or GM-CSF to survive in culture. The assay is based on that of Mossman, 1983, J. Immunol. Meth. 65 55, and involves the following procedure:— • (i) culture cells in RPMI-1640 medium supplemented with 10% (v/v) foetal bovine serum (FBS) and 100 units/mL IL3 under 5% CO2 at 37° C. Allow the culture to reach mid-log growth phase; • (ii) centrifuge cells at 500×g and wash with PBS to remove IL3 from the culture medium. Repeat the centrifugation and resuspend in 1 mL of RPMI-1640 plus 0.5% (v/v) FBS. […] Allow plate to rest in the dark for 5 minutes before reading; • (x) read plate at 595 nm on a microplate reader. Values obtained are directly proportional to cell number (as measured by mitochondrial dehydrogenase levels)."}, "α-chymotrypsin": {"system": "α-chymotrypsin", "assay": "Enzyme stability test, chymotrypsin", "format": "in vitro ADME", "details": "chymotrypsin 5% w:v, NH4HCO3 pH 8.3, 37° C.", "procedure": "To the stock peptide solution (100 μL) was added 900 μL NH4HCO3 (pH 8.3). Chymotrypsin was added to 5% w:v and incubated at 37° C. Aliquots were removed at 0 hr, 1 hr and 24 hrs and analysed by RP HPLC."}, "trypsin": {"system": "trypsin", "assay": "Enzyme stability test, trypsin", "format": "in vitro ADME", "details": "trypsin 5% w:v, NH4HCO3 pH 8.3, 37° C.", "procedure": "To the peptide solution (NH4HCO3, pH 8.3, 0.87 mg/mL) was added trypsin (5% w:v). Samples were incubated at 37° C. and aliquots removed at 0, 1, 3 and 18 hrs and analysed by RP-HPLC as above."}, "[2]": {"assay": "Blood serum stability test (RP-HPLC)", "format": "in vitro ADME", "details": "37° C.", "text": "Preliminary studies evaluated the bioavailability of SCY01 by exposing it to a variety of proteases (trypsin, chymotrypsin and pepsin) and blood serum proteins as described in MATERIALS AND METHODS. The results of the blood serum stability test are presented in Table 2, and the results of the enzyme stability tests are presented in Table 3. […] Thus emphasising the favourable chemical characteristics of disulfide-rich proteins.\nBlood was collected in heparinised tubes by venapuncture. The blood was centrifuged at 5000 rpm for 20 mins and the serum decanted. The blood serum was stored at −20° C. A sample of the blood serum (900 μL) was incubated with 100 μL of the stock peptide solution (1 mg/mL in H2O) at 37° C. and aliquots (100 μL) removed at the required time. A solution of 50% CH3CN 0.1% TFA was added to precipitate the blood serum proteins and centrifuged at 13000 rpm for 5 mins. A sample of this solution (100 μL) was analysed by RP-HPLC (Vydac C18 218TP54 250×4.1 mm id 1%/min gradient H2O/CH3CN 0.1% TFA) to detect peptide digestion."}, "pepsin": {"system": "pepsin", "assay": "Enzyme stability test, pepsin", "format": "in vitro ADME", "details": "pepsin 1% w:v, pH 2.2, 37° C.", "procedure": "To the stock peptide solution (100 μL) was added H2O (800 μL) and 0.1 M HCl (100 μL) to pH 2.2. Pepsin was added to give a 1% w:v solution and incubated at 37° C. Aliquots were removed at 0 h, 1 h and 24 hrs and analysed by RP-HPLC."}}, "note": "Positions of bridges follow the written chain, without caps; N, C: chain ends. Residues, ends and D or L forms follow the SMILES beside them.", "data": [{"smiles": "CC[C@H](C)[C@@H]1NC(=O)[C@@H]2CSSC[C@H](NC(=O)[C@H](Cc3ccccc3)NC(=O)[C@H](C)N)C(=O)N[C@@H](CC(N)=O)C(=O)N[C@@H](CC(C)C)C(=O)N[C@@H](CCCNC(=N)N)C(=O)N[C@@H](CCCCN)C(=O)N[C@H]3CSSC[C@H](NC(=O)[C@H](CCCCN)NC(=O)[C@H](CC(=O)O)NC(=O)CNC1=O)C(=O)N[C@@H](CCC(=O)O)C(=O)N[C@H](C(=O)N[C@H](C(=O)N[C@@H](CCCCN)C(N)=O)C(C)C)CSSC[C@H](NC(=O)[C@H](CCCCN)NC(=O)[C@H](CC(=O)O)NC(=O)[C@H](CCC(N)=O)NC3=O)C(=O)N[C@@H](CCC(=O)O)C(=O)N[C@@H]([C@@H](C)O)C(=O)N[C@@H](Cc1ccccc1)C(=O)NCC(=O)N[C@@H](CC(C)C)C(=O)N[C@@H](CC(C)C)C(=O)NCC(=O)N[C@@H](CCCCN)C(=O)N2", "note": "[SCY01] (H-AFCNLRKCQDKCETFGLLGKCIGDKCECVK-NH2; disulfide 3-21, 8-26, 12-28)", "values": [{"measurement": "Ki", "setting": "[1]", "value": "~200", "unit": "µM"}, {"measurement": "Enzyme stability test result, α-chymotrypsin", "setting": "α-chymotrypsin", "value": "Stable over 18 hrs"}, {"measurement": "Enzyme stability test result, trypsin", "setting": "trypsin", "value": "Stable over 18 hrs"}, {"measurement": "Blood serum stability test result, 0 hr", "setting": "[2]; 0 hr", "value": "stable"}, {"measurement": "Blood serum stability test result, 1 hr", "setting": "[2]; 1 hr", "value": "stable"}, {"measurement": "Blood serum stability test result, 24 hrs", "setting": "[2]; 24 hrs", "value": "stable"}, {"measurement": "Enzyme stability test result, pepsin", "setting": "pepsin", "value": "Stable over 18 hrs"}]}]}
